Experiments:
S. enteric (ATCC 43972) = experiment: Antibacterial agar diffusion method (inhibition zone); assay type: cell-based
Outline: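 Agar diffusion: compounds applied to top agar seeded with the strain, inhibition zone measured; ampicillin (10 µg/well) as reference. Viability: 2 ×10^7 CFU/mL in BHI shaken with compound 60 min at 37 °C, serially diluted, plated, colonies counted after 24 h at 37 °C; IC50 from residual CFU, mean of three.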

[1] = tested on: CDK2 protein in HCT-116 cells; experiment: Quantitative determination of CDK2 concentration in HCT-116 cell lysates (Human CDK2 ELISA Kit); assay type: cell-based; conditions: for downregulation of CDK2 protein expression, fold: as compared to the negative control; for concentration of CDK2 in lysate of treated HCT-116 cells: negative control 7.466 ng/mL
Protocol: First, the commercial Human CDK2 ELISA Kit was used to estimate concentrations of the protein in the lysate of HCT-116 cells treated with 4d and 4k. The results were compared with the positive (cells treated with the reference CDK inhibitor, BMS-265246) and negative control experiments.
The in vitro quantitative measurement of concentration of CDK2 in lysates of HCT-116 cells was carried out using a commercial Human CDK2 ELISA Kit (cat. no.: LS-F22176; LifeSpan Biosciences Inc., Seattle, WA, USA) in the presence or absence of the studied compounds (4d and 4k), following the manufacturer’s instructions. Briefly, standards, blanks or samples were first incubated in the corresponding wells for 90 min at 37 °C. Then, biotinylated detection antibody was added to each well and the plate was incubated for 1 h at 37 °C followed by the addition of an Avidin–Horseradish Peroxidase (HRP) conjugate which binds to the biotin. After incubation of the mixture for 30 min at 37 °C, unbound Avidin–HRP conjugate was washed away and a TMB substrate was then added which reacts with the HRP enzyme, resulting in color development. After that, the reaction was stopped using a sulfuric acid stop solution to terminate the color-development reaction and the optical density of each well was measured using a microplate reader at 450 nm. BMS-265246 was used as the standard drug for inhibition of CDK2. All measurements were performed in triplicate.

[2] = tested on: caspase-3 gene in HCT-116 cells; experiment: qRT-PCR expression profile of the caspase-3 gene in HCT-116 cells; assay type: cell-based, human; parameters: dose or concentration left out as unconfirmed; conditions: 24 h, as compared to the negative control
Text: Normally, apoptosis, or programmed cell death, is considered as a safeguard mechanism for managing stress and maintaining tissue homeostasis. It proceeds through a series of well-ordered biochemical cascades of events, which are regulated by a network of proteins. However, due to genetic and epigenetic mutations, deregulation of these proteins occurs, which results in evasion of apoptosis. This oncogenic transformation is a hallmark of human cancer, and it contributes to other tumorigenic events, including uncontrolled growth, accumulation of further genetic mutations, tumor angiogenesis and metastasis and chemotherapeutic resistance. Therefore, reinitiating selective cancer cell death is a fundamental goal in anticancer drug development. Research in cancer biology has provided fundamental insights into the apoptotic pathways and their deregulation in colon cancer. Moreover, it has identified the molecular targets for reinitiating selective tumor cell death, including antiapoptotic Bcl-2 family proteins, apoptosis inhibitors and activators of the TRAIL death receptor signaling pathway, as well as other apoptotic markers, such as caspases. Among the caspases, which play critical roles in apoptosis, are the initiators, including caspases-8 or 9, and the effectors, including caspase-3 and caspase-7. […] Thus, the real-time quantitative PCR analyses of caspase-3-gene levels following treatment with compounds 4d and 4K at a concentration […] for 24 h, were performed to investigate their potential as proapoptotic agents. […]
Total RNA was extracted from each cell culture flask using the RNeasy extraction kit (RNeasy micro kit, cat. no. 74004). […] The amount of extracted RNA was quantified by estimating the absorbance at 260 nm. The purity of the RNA was checked by measuring the ratio of the absorbance at 260 and 280 nm, where a ratio ranging from 1.8 to 2.0 was taken to be pure. […]
Quantitative real-time PCR was carried out with the Thermal Cycler Rotorgene Real-Time System II (Rotorgene, South Korea) with the SYBR kit. […]

| SMILES | IZ (mm) (S. enteric (ATCC 43972)) | downregulation of CDK2 protein expression, fold [1] [fold] | concentration of CDK2 in lysate of treated HCT-116 cells [1] [ng/mL] | caspase-3 gene transcription level, fold increase [2] [fold] |
| --- | --- | --- | --- | --- |
| COc1cc(C2C(C#N)=C(N)OC(C)=C2C(=O)OCc2ccccc2)cc(OC)c1OC (stereo not shown) [4d, 6-Amino-5-cyano-2-methyl-4-(3,4,5-trimethoxy-phenyl)-4H-pyran-3-carboxylic acid benzyl ester] | 7.0 ± 0.0 | 1.9 | 4.634 | 2.55 |
| CC1=C(C(=O)OCc2ccccc2)C(c2ccc(C#N)cc2)C(C#N)=C(N)O1 (stereo not shown) [4k, 6-Amino-5-cyano-4-(4-cyano-phenyl)-2-methyl-4H-pyran-3-carboxylic acid benzyl ester] |  | 1.6 | 3.932 | 4.62 |

Reference: publication PMC9317316, “Synthesis and Evaluation of Some New 4H-Pyran Derivatives as Antioxidant, Antibacterial and Anti-HCT-116 Cells of CRC, with Molecular Docking, Antiproliferative, Apoptotic and ADME Investigations” (Pharmaceuticals, 2022)
